Measurements reported in patent US7101844B2, “Cytoplasmic transduction peptides and uses thereof” (Creagene, Inc., priority 2002, dated 2006).
Entries after “also recorded” stand apart in the source; their conditions may differ.

Experiments:
Assay type in all cases: cell-based
HeLa cells [1] = assay: Transduction of PTD- and CTP-β-galactosidase into HeLa cells (X-gal staining after fixation); details: 100 μg/ml, 1 hr; for transduction potential: β-galactosidase fusion protein, HeLa cells, fixation
Text: Although various other substitutions could be performed, it is essential in this invention that the introduction of a positive charge by arginine and the substitution by an α-helix stabilizing amino acid should be carried out for maintaining the principle function of the PTD peptide. Therefore, as a substitute amino acid, the positively charged amino acid is restricted to arginine, and the negatively charged amino acid is restricted to glutamic acid. β-galactosidase was fused to the CTP candidate peptide, the fusion proteins were isolated and purified (see FIG. 2), and HeLa cells were treated with each of the fusion proteins. This was then followed by an analysis of the transduction potential and a determination of the extent of the cytoplasmic remaining property.
The transduction potential of the PTD and CTP candidates was tested with HeLa cells. Using a 24-well plate (Nunc), 5×10^4 HeLa cells were inoculated into high glucose DMEM (containing 10% FBS) and cultured for 36 hr. The cells were rinsed with PBS and treated with 100 μg/ml of PTD- and CTP-β-galactosidase in an opti-MEM I medium. After 1-hr incubation, cells were fixed for 10 min at room temperature with a fixation solution (2% formaldehyde, 0.2% glutaraldehyde in PBS). Then, the cells were rinsed twice with PBS, and stained for 2 hr with dye (0.1% X-gal, 5 mM potassium ferricyanide, 5 mM potassium ferrocyanide, 2 mM MgCl2 in PBS) to examine their transduction potential (see FIG. 3). The samples showing a low level of staining, even after a 2-hr staining, were incubated overnight, and then stained for the relative transduction potential. The transduction potentials of the PTD and CTP candidates into HeLa cells were seen to be in the following order: PTD5<CTP502<<CTP501=CTP506<CTP507<CTP505<CTP503=CTP504<CTP508=CTP510=MTS<CTP509<<PTD=CTP511<<CTP512.

HeLa cells [2] = assay: Subcellular localization of CTP-β-gal by confocal scanning microscope; details: β-galactosidase fusion protein, 100 μg/ml, 1 hr
Text: To select cytoplamic transduction peptides (CTPs) of interest, HeLa cells were transduced with CTP-β-galactosidase, and then examined under the confocal scanning microscope. Before the confocal analysis, cells were stained with mouse anti-β-galactosidase antibody and 2nd antibodies conjugated with FITC (Fluorescence-iso-thio-cyanate) or with PE (phycoerythrin) together with DNA staining reagent (green fluorescence SYTO-16 DNA staining dye, Molecular Probe). First, HeLa cells (5×10^5 cells/ml) were plated onto a 6-well plate containing sterilized cover-slips and cultured overnight at 37° C. CO2 incubator. The cells were washed with PBS (pH 7.4) and 1 ml of an OPTI-MEM I medium was added, followed by treatment with candidate CTP-fused proteins (100 μg/ml). As a positive control, PTD-β-galactosidase fusion protein was employed, and as a negative control, only β-galactosidase protein was used. Following the treatment with candidate CTP-β-galactosidase fusion proteins, cells were incubated for 1 hr at 37° C. incubator. The cells were rinsed three times with PBS and fixed with 2% paraformaldehyde for 20 min at 4° C. HeLa cells fixed were washed twice with washing buffer (PBS containing 0.2% BSA and 0.02% sodium azide). To stain the cells with antibody, cells were pre-treated with 0.5% Triton X-100 (in PBS, Sigma) at 4° C. for 20 min. Cells were washed three times with washing buffer and then stained with mouse anti-β-galactosidase antibody (diluted 1:2,000, Sigma) for 1 hr at 4° C. as a primary antibody and then washed three times with washing buffer. Cells were then incubated with FITC-conjugated goat anti-mouse IgG (diluted 1:2,000, Jackson Laboratory) as a secondary antibody for 20 min at 4° C. Washed 3 times with the same washing buffer, cells were fixed on a slide glass with fluorescence mounting medium (DAKO) and the edge of slide glass was sealed with nail vanish.
Double staining was carried out with SYTO-16 DNA staining dye as follows: First, the cells were incubated with the primary antibodies under the same conditions and rinsed three times. Then, the cells were incubated at 4° C. for 20 min with PE-conjugated goat anti-mouse IgG PE (diluted 1:2,000, Jackson Laboratory). Washed three times with washing buffer, cells were incubated with SYTO-16 DNA staining dye (diluted 1:1,000, DAKO) for 20 min at 4° C. Cells were fixed and sealed on a slide glass and then examined under a confocal laser scanning microscope.
In the present experiment, LEICA TCS NT SP confocal microscope (LEICA Lasertech GmbH, Heidelverg, Germany) was employed, which was equipped with lager generator of argon (Ar) and krypton (Kr), scanning device, and filter capable of detecting FITC (510–550 nm) and PE (600–660) at independent channel. Photographs were taken by PL-APO X100 objective. For single staining, the cells were sectioned into 4-layers and fluorescence and transmission photographs were taken. For double staining, FITC, PE, and transmission photographs were taken using optimal respective filter.

HeLa cells [3] = assay: Subcellular localization of CTP-FITC by confocal microscope without cell fixation; details: FITC-labeled peptide, 25 μg/ml, 1 hr
Text: Fixation step is inevitable for examining the subcellular localization of the transduced β-gal in the cells with antibodies. However, according to the previous reports, the fusion protein attached to cell surface is very likely to be introduced into the cell during a cell fixation procedure, which may affect its transduction potential and its subcellular localization. However, FITC-labeled membrane permeation peptides allow its subcellular localization to be observed under a confocal microscope without cell fixation. Monolayered HeLa cells were treated for 1 hr with FITC-labeled CTP, PTD or MTS at a concentration of 25 μg/ml, and washed three times with HBSS, followed by observation under a confocal microscope without cell fixation.

HeLa cells [4] = assay: Quantitative analysis of the membrane permeability of CTP-β-gal (β-gal activity of lysates of trypsinized cells); details: incubation for 20 hr
Description: For the quantitatation of the permeability of each CPP-fusion protein, HeLa cells were treated with PTD, MTS and CTP508, 509, 511, 512, 513 and 514, CPP-β-gal fusion proteins for 20 hr as described above, and the cells were trypsinized, followed by measuring the amounts of fusion protein imported into cells. Trypsin-treated cells were washed twice with 10% FBS-containing DMEM (high glucose) to inactivate any residual trypsin activity, and then washed once with 1× PBS. The cells collected by centrifugation were resuspended in a 0.9% Triton-X 100 solution, incubated for 10 min at room temperature to lyse cells, and then the supernatant of each lysate was obtained by centrifugation at 12000 rpm for 2 min. The β-gal activity of each sample was measured at 570 nm using enhanced β-gal assay kit (GTS Inc, USA) and an ELISA reader.

Which transduction potential (HeLa cells [1]) does the source give for “CTP512: CTP (2G4R8R9R), sequence YGRRARRRRRR; representative CTP used from Example 5-4 on” here?
Its transduction potential is “higher transduction potential than the wild type PTD; also recorded: significantly high transduction potential”.

And the transduction potential (HeLa cells [1]; listed as CTP 512)?
Its transduction potential is “transduction potential higher than wild type PTD”.

And the “order of transduction potentials into HeLa cells” value (HeLa cells [1]; β-galactosidase fusion, X-gal staining)?
The value was “CTP511<<CTP512”.

And the “cytoplasmic remaining property / subcellular localization” value (HeLa cells [2])?
The value was “excellent cytoplamic localization property; also recorded: excellent cytoplamic remaining property; also recorded: significantly high”.

What about the “cytoplasmic remaining property / subcellular localization” value (HeLa cells [2]; listed as CTP 512) of the same substance?
The value was “excellent cytoplasmic remaining property”.

What about the “order of transduction potential” value (HeLa cells [3]) of the same substance?
Its value is “CTP512>513”.

What about the subcellular localization (HeLa cells [3]) of the same substance?
Its subcellular localization is “observed only in the cytoplasm, and not in the nucleus”.

What about the “transduction into HeLa cells” value (HeLa cells [4]) of the same substance?
The value was “much higher transduction potential than either the PTD or the MTS”.
